Measured values: publication PMC8197367, “Comparative Antimicrobial Activity of Hp404 Peptide and Its Analogs against Acinetobacter baumannii” (International Journal of Molecular Sciences, 2021)
Where no end group is shown, it is not given here.

Columns and labels:
B. cereus KCTC 1012 = experiment: MIC, broth microdilution; type: cell-based, Bacillus cereus; settings: two-fold broth microdilution, TSB, 2 × 10^5 CFU/mL, 37 °C, 18 h, read at 600 nm, three independent experiments
Description: (§1) The experiment was performed in triplicate.

A. baumannii KCTC 2508 [1] = settings: NB supplemented with 150 mM NaCl, triplicate
Description: (§2) Hp1404 and its analog peptides activity against both gram-positive and gram-negative bacterial strains were tested using the broth microdilution method. Briefly, S. aureus (ATCC 25923, ATCC 29213) and B. cereus KCTC 1012 were cultured overnight at 37 °C in tryptic soy broth (TSB). P. aeruginosa ATCC 27853, K. pneumoniae KCTC 2208, A. baumannii KCTC 2508 and S. typhimurium ATCC 14028 were cultured overnight at 37 °C in nutrient broth (NB). E. coli ATCC 25922 was cultured overnight at 37 °C in luria bertani (LB). L. monocytogenes KCTC 3710 was cultured overnight at 37 °C in brain heart infusion (BHI). The cultures were diluted with fresh medium at a density of 2 × 10^5 CFU/mL. Peptides were serially diluted in sodium phosphate buffer (pH 7.2) to a final concentration of 25 μM. In a 96-well plate, 50-μL bacterial aliquots were mixed with 50 μL peptide solution. After incubation at 37 °C for 18 h, the MIC was determined using a plate reader at 600 nm. The experiment was performed in triplicate.
To determine whether antibacterial activity was affected by the presence of salts, experiments were conducted as previously reported. We determined the MICs of NB supplemented with 150 mM NaCl. MIC assays were performed as described above. The assay was performed in triplicate.

[2] = test system: S. typhimurium ATCC 14028; experiment: MIC, broth microdilution; type: cell-based, Salmonella typhimurium; settings: two-fold broth microdilution, NB, 2 × 10^5 CFU/mL, 37 °C, 18 h, read at 600 nm, three independent experiments
Description: as §1

E. coli ATCC 25922 = experiment: MIC, broth microdilution; type: cell-based, Escherichia coli; settings: two-fold broth microdilution, LB, 2 × 10^5 CFU/mL, 37 °C, 18 h, read at 600 nm, three independent experiments
Description: as §1

HaCaT cells = settings: 50 μM peptide, 24 h, MTT assay
Description: The cytotoxicity of the peptides against mammalian cells was calculated using the MTT assay. Human keratinocyte HaCaT cells were incubated in Dulbecco’s modified Eagle’s medium (DMEM) supplemented with 10% fetal bovine serum and 1% penicillin at 37 °C with 5% CO2. HaCaT cells were added at 2 × 10^5 cells/mL to DMEM supplemented with 10% fetal bovine serum and placed in 96-well plates. The plates were incubated overnight at 37 °C in a CO2 incubator. Peptides were serially diluted two-fold in DMEM, added to the cell cultures and incubated for 24 h at 37 °C. MTT solution (5 mg/mL) was added to each well and incubated for 1 h at 37 °C. The media was discarded, and the formazan crystals were dissolved in 100 μL dimethyl sulfoxide. The absorbance was measured using a Versa-Max microplate ELISA reader (Molecular Devices, Sunnyvale, CA, USA) at 570 and 650 nm. As a […], 0.1% Triton X-100 was used.

S. aureus ATCC 29213 = experiment: MIC, broth microdilution; type: cell-based, Staphylococcus aureus; settings: two-fold broth microdilution, TSB, 2 × 10^5 CFU/mL, 37 °C, 18 h, read at 600 nm, three independent experiments
Description: as §1

S. aureus ATCC 25923 = experiment: MIC, broth microdilution; type: cell-based, Staphylococcus aureus; settings: two-fold broth microdilution, TSB, 2 × 10^5 CFU/mL, 37 °C, 18 h, read at 600 nm, three independent experiments
Description: as §1

[3] = test system: L. monocytogenes KCTC 3710; experiment: MIC, broth microdilution; type: cell-based, Listeria monocytogenes; settings: two-fold broth microdilution, BHI, 2 × 10^5 CFU/mL, 37 °C, 18 h, read at 600 nm, three independent experiments
Description: as §1

mouse red blood cells = experiment: Hemolytic assay; type: cell-based; settings: 50 μM peptide (highest tested concentration); 8% mouse red blood cells in PBS, 1 h, 37 °C, absorbance 414 nm, vs 0.1% Triton X-100
Description: The hemolytic activity of the peptides against mouse erythrocytes was determined using red blood cells. Fresh mouse red blood cells were washed three times and resuspended in PBS to attain an 8% dilution. Peptides were serially diluted to a final concentration of 50 μM. Next, 100 µL peptide solution was added to 100 μL of mouse red blood cells, wrapped with aluminum foil and incubated for 1 h at 37 °C. The mixture was then centrifuged at 1500× g for 10 min. The supernatant was transferred into a new 96-well plate, and the absorbance of the supernatant was measured at 414 nm. As positive and negative controls, […] in mouse red blood cells were used. Hemolysis was evaluated according to the following equation:
Hemolysis (%) = [(Abs414 nm in the peptide solution − Abs414 nm in PBS)/(Abs414 nm in 0.1% Triton X-100 − Abs414 nm in PBS)] × 100.

P. aeruginosa ATCC 27853 = experiment: MIC, broth microdilution; type: cell-based; settings: two-fold broth microdilution, NB, 2 × 10^5 CFU/mL, 37 °C, 18 h, read at 600 nm, three independent experiments
Description: as §1

K. pneumoniae KCTC 2208 = experiment: MIC, broth microdilution; type: cell-based; settings: two-fold broth microdilution, NB, 2 × 10^5 CFU/mL, 37 °C, 18 h, read at 600 nm, three independent experiments
Description: as §1

A. baumannii #4 = experiment: microbe, parasite or virus in culture; settings: A. baumannii #4 isolated from patient; broth microdilution, 37 °C, 18 h; three independent experiments
Excerpt: (§3) Staphylococcus aureus ATCC 25923, S. aureus ATCC 29213, P. aeruginosa ATCC 27853, Escherichia coli ATCC 25922 and Salmonella typhimurium ATCC 14028 strains were obtained from the American Type Culture Collection (ATCC, Manassas, VA, USA). Listeria monocytogenes KCTC 3710, Bacillus cereus KCTC 1012, K. pneumoniae KCTC 2208 and A. baumannii KCTC 2508 were obtained from the Korean Collection for Type Cultures (KRIBB, Daejeon, South Korea). Clinical isolates of A. baumannii strains were collected from Eulji University Hospital (Seoul, South Korea).
as §2

A. baumannii #2 = experiment: microbe, parasite or virus in culture; settings: A. baumannii #2 isolated from patient; broth microdilution, 37 °C, 18 h; three independent experiments
Excerpt: as §3, §2

A. baumannii #3 = experiment: microbe, parasite or virus in culture; settings: A. baumannii #3 isolated from patient; broth microdilution, 37 °C, 18 h; three independent experiments
Excerpt: as §3, §2

A. baumannii 719705 = experiment: microbe, parasite or virus in culture; settings: A. baumannii 719705 isolated from patient; broth microdilution, 37 °C, 18 h; three independent experiments
Excerpt: as §3, §2

A. baumannii 907233 = experiment: microbe, parasite or virus in culture; settings: A. baumannii 907233 isolated from patient; broth microdilution, 37 °C, 18 h; three independent experiments
Excerpt: as §3, §2

A. baumannii 409081 = experiment: microbe, parasite or virus in culture; settings: A. baumannii 409081 isolated from patient; broth microdilution, 37 °C, 18 h; three independent experiments
Excerpt: as §3, §2

A. baumannii KCTC 2508 [4] = experiment: MIC, broth microdilution; type: cell-based, Acinetobacter baumannii; settings: two-fold broth microdilution, NB, 2 × 10^5 CFU/mL, 37 °C, 18 h, read at 600 nm, no added salt, three independent experiments
Description: as §1

Calcein leakage assay [5] = settings: PC:CH:SM (1:1:1, w/w) LUVs (10 μM) loaded with calcein; excitation 480 nm, emission 520 nm; various peptide concentrations
Description: (§4) Peptide-induced membrane permeability was monitored be measuring calcein dye emission in calcein-loaded LUVs [49]. We prepared the lipid mixture, and PC:CH (2:1, w/w) and PC:CH:SM liposomes (1:1:1, w/w) were prepared with 70 mM calcein buffer. A Sephadex G-50 column was used to separate calcein-loaded liposomes from free calcein dye. The LUVs (10 μM) were mixed with various concentrations of the peptide on a 96-well black plate. The fluorescence intensity was measured at excitation and emission wavelengths of 480 and 520 nm, respectively.

[6] = calcein-loaded LUVs, Figure 4c
Description: Peptide-induced membrane permeability was monitored be measuring calcein dye emission in calcein-loaded LUVs. We prepared the lipid mixture, and PC:CH (2:1, w/w) and PC:CH:SM liposomes (1:1:1, w/w) were prepared with 70 mM calcein buffer. A Sephadex G-50 column was used to separate calcein-loaded liposomes from free calcein dye. The LUVs (10 μM) were mixed with various concentrations of the peptide on a 96-well black plate. The fluorescence intensity was measured at excitation and emission wavelengths of 480 and 520 nm, respectively.

Calcein leakage assay [7] = settings: PC:CH LUVs (10 μM) loaded with calcein; excitation 480 nm, emission 520 nm; various peptide concentrations
Description: as §4

Substance	MIC (B. cereus KCTC 1012)	MIC in the presence of 150 mM NaCl (A. baumannii KCTC 2508 [1])	MIC [2]	MIC (E. coli ATCC 25922)	Cell viability (HaCaT cells)	MIC (S. aureus ATCC 29213)	MIC (S. aureus ATCC 25923)	MIC [3]	hemolytic activity (mouse red blood cells)	MIC (P. aeruginosa ATCC 27853)	MIC (K. pneumoniae KCTC 2208)	MIC (A. baumannii #4)	MIC (A. baumannii #2)	MIC (A. baumannii #3)	MIC (A. baumannii 719705)	MIC (A. baumannii 907233)	MIC (A. baumannii 409081)	MIC (A. baumannii KCTC 2508 [4])	also measured
GILGKLWEGVKSIW-NH2 [Hp1404-W]	25 µM	6.25 µM	3.13 µM	12.5 µM	100%	12.5 µM	3.13 µM	6.25 µM	15.9%	25 µM	12.5 µM	3.13 µM	3.13 µM	3.13 µM	3.13 µM	3.13 µM	3.13 µM	3.13 µM	–
GILGKLWEGVKSII-NH2 [Hp1404-I]	25 µM	12.5 µM	3.13 µM	12.5 µM	100%	12.5 µM	3.13 µM	6.25 µM	–	25 µM	25 µM	3.13 µM	3.13 µM	3.13 µM	6.25 µM	3.13 µM	3.13 µM	3.13 µM	–
GILGKLWEGVKSIA-NH2 [Hp1404-A]	>25 µM	–	25 µM	>25 µM	100%	>25 µM	12.5 µM	>25 µM	no hemolytic activity	>25 µM	>25 µM	–	–	–	–	–	–	25 µM	calcein release (fluorescence intensity) (Calcein leakage assay [5]): did not release calcein; calcein leakage fluorescence (bioimaging) [6]: no fluorescence was observed; calcein release (fluorescence intensity) (Calcein leakage assay [7]): did not release calcein
GILGKLWEGVKSIK-NH2 [Hp1404-K]	>25 µM	–	12.5 µM	>25 µM	–	>25 µM	25 µM	>25 µM	no hemolytic activity	>25 µM	>25 µM	–	–	–	–	–	–	25 µM	calcein release (fluorescence intensity) (Calcein leakage assay [5]): did not release calcein; calcein leakage fluorescence (bioimaging) [6]: no fluorescence was observed; calcein release (fluorescence intensity) (Calcein leakage assay [7]): did not release calcein
GILGKLWEGVKSIF-NH2 [Hp1404, reference compound]	12.5 µM	6.25 µM	3.13 µM	12.5 µM	72.3%	6.25 µM	3.13 µM	3.13 µM	49.2%	12.5 µM	12.5 µM	3.13 µM	3.13 µM	3.13 µM	3.13 µM	3.13 µM	3.13 µM	3.13 µM	–
GILGKLWEGVKSIV-NH2 [Hp1404-V]	25 µM	25 µM	6.25 µM	25 µM	100%	25 µM	6.25 µM	25 µM	no hemolytic activity	>25 µM	>25 µM	6.25 µM	6.25 µM	6.25 µM	12.5 µM	6.25 µM	6.25 µM	6.25 µM	–
GILGKLWEGVKSIL-NH2 [Hp1404-L]	12.5 µM	6.25 µM	1.56 µM	12.5 µM	62.4%	6.25 µM	1.56 µM	3.13 µM	45.8%	12.5 µM	12.5 µM	3.13 µM	3.13 µM	3.13 µM	3.13 µM	3.13 µM	3.13 µM	3.13 µM	–
